Paper PMC6061700 (Toxicological Sciences, 2018)
Read-outs that look alike come from different tables or passages of the source. Marks after values point to notes of the source that are not given here.

What was measured:
[1] = system: Cellular Dynamics International [CDI] human stem cell-derived cardiomyocytes
[2] = system: human induced pluripotent stem cell-derived cardiomyocytes (hiPSC-CMs)
[3] = system: Stanford Cardiovascular Institute [SCI] human stem cell-derived cardiomyocytes; conditions: for EAD occurrence (proportion of replicates exhibiting EADs): study 10, SCI, AXN
[4] = system: Axiogenesis [AXG] human stem cell-derived cardiomyocytes; conditions: for EAD occurrence (proportion of replicates exhibiting EADs): AXG; for FPDc20 concentration (20% increase in FPDc): human
[5] = free clinical Cmax; ref Kramer et al. (2013); cited from earlier work
[6] = 20% increase in FPDc, median across qualified studies

For `CC(C)(Oc1ccc(Cl)cc1)C(=O)NC1C2CC3CC1CC(NS(C)(=O)=O)(C3)C2` (stereo not shown) [JNJ303], the “prolongation of FPD and FPDc” value ([1]; single example study, CDI myocytes, highest concentration tested (300 nM)) was about 10% and the EAD occurrence ([2]; across all studies, any concentration) was “No EADs”.
In the case of `O=C(NCC1CCCCN1)c1cc(OCC(F)(F)F)ccc1OCC(F)(F)F` (stereo not shown) [Flecainide], the “FPDc20 concentration (20% increase in FPDc)” value ([3]; human) was 1 µM, the “EAD occurrence (proportion of replicates exhibiting EADs)” value ([3]; 1 µM) was 1/3 and the “EAD occurrence (proportion of replicates exhibiting EADs)” value ([3]; 3 µM) was 2/3. The “EAD occurrence (proportion of replicates exhibiting EADs)” value ([4]; study 4, MCS, 3 µM) was 1/3, the “EAD occurrence (proportion of replicates exhibiting EADs)” value ([1]; study 5, CDI, AXN, 1 µM) was 2/4 and the “EAD occurrence (proportion of replicates exhibiting EADs)” value ([1]; study 5, CDI, AXN, 3 µM) was 1/4. For the same compound, the “EAD occurrence (proportion of replicates exhibiting EADs)” value ([1]; study 6, CDI, AXN, 1 µM) was 1/3, the “EAD occurrence (proportion of replicates exhibiting EADs)” value ([1]; study 6, CDI, AXN, 3 µM) was 1/3 and the “EAD occurrence (proportion of replicates exhibiting EADs)” value ([1]; study 7, CDI, MCS, 3 µM) was 3/3. The “EAD occurrence (proportion of replicates exhibiting EADs)” value ([1]; study 8, CDI, MCS, 3 µM) was 4/4, the “EAD occurrence (proportion of replicates exhibiting EADs)” value ([1]; study 9, CDI, ACA, 3 µM) was 3/3 and the “FPDc20: median” value [2, 6] was 1 µM.
In the case of `C=C[C@H]1C[N@@]2CC[C@H]1C[C@@H]2[C@@H](O)c1ccnc2ccc(OC)cc12` [Quinidine], the “FPDc20 concentration (20% increase in FPDc)” value ([3]; human) was 1 µM, the “EAD occurrence (proportion of replicates exhibiting EADs)” value ([3]; 1 µM) was 2/3 and the “EAD occurrence (proportion of replicates exhibiting EADs)” value ([3]; 3 µM) was 3/3. The “EAD occurrence (proportion of replicates exhibiting EADs)” value ([4]; study 1, AXN, 10 µM) was 3/3, the “EAD occurrence (proportion of replicates exhibiting EADs)” value ([4]; study 2, AXN, 10 µM) was 2/3 and the “EAD occurrence (proportion of replicates exhibiting EADs)” value ([4]; study 4, MCS, 10 µM) was 3/3. The “EAD occurrence (proportion of replicates exhibiting EADs)” value ([1]; study 5, CDI, AXN, 10 µM) was 2/3, the “EAD occurrence (proportion of replicates exhibiting EADs)” value ([1]; study 6, CDI, AXN, 1 µM) was 3/3 and the “EAD occurrence (proportion of replicates exhibiting EADs)” value ([1]; study 6, CDI, AXN, 3 µM) was 3/3. The “EAD occurrence (proportion of replicates exhibiting EADs)” value ([1]; study 7, CDI, MCS, 3 µM) was 1/3, the “EAD occurrence (proportion of replicates exhibiting EADs)” value ([1]; study 7, CDI, MCS, 10 µM) was 3/3 and the “EAD occurrence (proportion of replicates exhibiting EADs)” value ([1]; study 8, CDI, MCS, 10 µM) was 4/4. The “EAD occurrence (proportion of replicates exhibiting EADs)” value ([1]; study 9, CDI, ACA, 1 µM) was 1/3, the “EAD occurrence (proportion of replicates exhibiting EADs)” value ([1]; study 9, CDI, ACA, 3 µM) was 3/3 and the “EAD occurrence (proportion of replicates exhibiting EADs)” value ([1]; study 9, CDI, ACA, 10 µM) was 2/3. For the same compound, the “FPDc20: median” value [2, 6] was 1 µM, the “FPDc20: span” value ([2]; 20% increase in FPDc, span across qualified studies) was 1 log unit and the “Free Drug (free Cmax)” value [5] was 3.237* µM.
In the case of `COC(=O)C1=C(C)NC(C)=C(C(=O)OC)C1c1ccccc1[N+](=O)[O-]` [Nifedipine], the “FPDc20 concentration (20% decrease in FPDc)” value ([3]; human) was 0.3 µM, the EAD occurrence [2] was “No EADs” and the “FPDc20: median” value ([2]; human) was 0.1 µM. For the same compound, the “FPDc20: span” value ([2]; human) was 0.5 log unit.
With `COc1c(N2C[C@@H]3CCCN[C@@H]3C2)c(F)cc2c(=O)c(C(=O)O)cn(C3CC3)c12` [Moxifloxacin] the “FPDc20 concentration (20% increase in FPDc)” value ([3]; human) was 30 µM, the “EAD occurrence (proportion of replicates exhibiting EADs)” value ([3]; 30 µM) was 1/3 and the “EAD occurrence (proportion of replicates exhibiting EADs)” value ([3]; 100 µM) was 2/3. For the same compound, the “FPDc20 concentration (20% increase in FPDc)” value [4] was 100 µM, the “EAD occurrence (proportion of replicates exhibiting EADs)” value ([1]; study 6, CDI, AXN, 100 µM) was 3/3 and the “EAD occurrence (proportion of replicates exhibiting EADs)” value ([1]; study 9, CDI, ACA, 30 µM) was 1/3. The “EAD occurrence (proportion of replicates exhibiting EADs)” value ([1]; study 9, CDI, ACA, 100 µM) was 2/3, the “FPDc20: median” value [2, 6] was 100 µM and the “Free Drug (free Cmax)” value [5] was 10.96* µM.
With `Cc1cccc(C)c1OCC(C)N` (stereo not shown) [Mexiletine] the “FPDc20 concentration (20% increase in FPDc)” value [4] was 30 µM, the “EAD occurrence (proportion of replicates exhibiting EADs)” value ([1]; human) was 3/3 and the “FPDc20: median” value ([2]; human) was 30 µM. For the same compound, the “FPDc20: span” value ([2]; human) was 0.5 log unit and the “studies in which FPDc20 was detected” value ([2]; human) was 3 of 8.
For `COc1ccccc1OCC(O)CN1CCN(CC(=O)Nc2c(C)cccc2C)CC1` (stereo not shown) [Ranolazine], the “FPDc20 concentration (20% increase in FPDc)” value ([3]; human) was 10 µM, the “EAD occurrence (proportion of replicates exhibiting EADs)” value ([3]; 10 µM) was 1/3 and the “EAD occurrence (proportion of replicates exhibiting EADs)” value ([3]; 30 µM) was 2/3. The “EAD occurrence (proportion of replicates exhibiting EADs)” value ([4]; study 4, MCS, 30 µM) was 3/4, the “EAD occurrence (proportion of replicates exhibiting EADs)” value ([1]; study 6, CDI, AXN, 10 µM) was 3/3 and the “EAD occurrence (proportion of replicates exhibiting EADs)” value ([1]; study 6, CDI, AXN, 30 µM) was 3/3. For the same compound, the “EAD occurrence (proportion of replicates exhibiting EADs)” value ([1]; study 7, CDI, MCS, 30 µM) was 3/3, the “EAD occurrence (proportion of replicates exhibiting EADs)” value ([1]; study 8, CDI, MCS, 30 µM) was 5/5 and the “EAD occurrence (proportion of replicates exhibiting EADs)” value ([1]; study 9, CDI, ACA, 10 µM) was 3/3. For the same compound, the “EAD occurrence (proportion of replicates exhibiting EADs)” value ([1]; study 9, CDI, ACA, 30 µM) was 2/3 and the “FPDc20: median” value [2, 6] was 10 µM.
